This is an account of results in ChEMBL document CHEMBL5465560, “Selectivity Literature for EUbOPEN Chemogenomic Library” (2024).

Experiment [1] addresses T1, Mitogen-activated protein kinase 12 (Homo sapiens) (UniProt P53778).
T1 sequence (whole entry): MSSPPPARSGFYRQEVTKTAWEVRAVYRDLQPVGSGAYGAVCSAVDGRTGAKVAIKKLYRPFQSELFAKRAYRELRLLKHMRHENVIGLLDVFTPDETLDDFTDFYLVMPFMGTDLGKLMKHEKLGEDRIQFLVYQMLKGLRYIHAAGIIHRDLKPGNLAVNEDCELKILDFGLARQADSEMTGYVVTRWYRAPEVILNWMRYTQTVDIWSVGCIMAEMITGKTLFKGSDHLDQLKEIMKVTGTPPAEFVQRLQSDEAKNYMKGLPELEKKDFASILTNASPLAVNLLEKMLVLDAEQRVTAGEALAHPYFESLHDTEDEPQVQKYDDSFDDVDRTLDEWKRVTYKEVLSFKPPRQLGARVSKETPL
The experiment in a line: Selectivity interaction (Upstate Kinase Profiler service (Millipore)) EUB0000056c MAPK12. The settings on record: at 1 µM.

Experiment [2] concerns the target Cyclin-dependent kinase 5/CDK5 activator 1 (Homo sapiens) (UniProt Q00535+Q15078). The experiment in a line: Selectivity interaction (ProQinase) EUB0000171b CDK5. In kind it is protein-complex assay. The settings on record: at 1 µM.
The target in experiment [3] is T2, Ephrin type-B receptor 1 (Homo sapiens) (UniProt P54762).
T2 sequence (whole entry): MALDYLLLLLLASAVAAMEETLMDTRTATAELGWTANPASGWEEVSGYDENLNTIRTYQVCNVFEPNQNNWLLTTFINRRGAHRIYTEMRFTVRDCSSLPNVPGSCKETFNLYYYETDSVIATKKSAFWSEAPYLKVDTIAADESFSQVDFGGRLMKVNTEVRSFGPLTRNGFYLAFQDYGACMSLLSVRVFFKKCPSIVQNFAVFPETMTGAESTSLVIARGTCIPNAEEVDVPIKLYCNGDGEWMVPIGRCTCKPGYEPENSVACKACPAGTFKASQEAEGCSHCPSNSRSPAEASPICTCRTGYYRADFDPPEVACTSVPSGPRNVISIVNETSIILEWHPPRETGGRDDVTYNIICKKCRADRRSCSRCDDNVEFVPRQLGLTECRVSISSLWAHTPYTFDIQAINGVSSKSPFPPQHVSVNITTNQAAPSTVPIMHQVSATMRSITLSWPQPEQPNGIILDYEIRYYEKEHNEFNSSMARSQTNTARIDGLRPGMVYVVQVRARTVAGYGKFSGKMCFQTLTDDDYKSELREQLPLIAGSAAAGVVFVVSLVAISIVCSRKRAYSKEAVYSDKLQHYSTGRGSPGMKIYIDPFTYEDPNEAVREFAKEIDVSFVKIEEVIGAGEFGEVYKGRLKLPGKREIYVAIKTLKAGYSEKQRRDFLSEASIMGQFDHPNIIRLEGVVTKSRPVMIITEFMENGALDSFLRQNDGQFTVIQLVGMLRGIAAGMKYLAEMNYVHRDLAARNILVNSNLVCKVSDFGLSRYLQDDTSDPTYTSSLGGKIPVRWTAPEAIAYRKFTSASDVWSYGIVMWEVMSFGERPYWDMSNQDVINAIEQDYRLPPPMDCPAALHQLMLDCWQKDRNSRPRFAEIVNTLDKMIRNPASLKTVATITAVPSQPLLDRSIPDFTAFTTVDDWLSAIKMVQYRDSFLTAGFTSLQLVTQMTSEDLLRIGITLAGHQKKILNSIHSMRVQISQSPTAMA
The settings on record: at 10 µM.

Experiment [4] concerns the target T3, Dual specificity mitogen-activated protein kinase kinase 6 (Homo sapiens) (UniProt P52564).
T3 sequence (whole entry): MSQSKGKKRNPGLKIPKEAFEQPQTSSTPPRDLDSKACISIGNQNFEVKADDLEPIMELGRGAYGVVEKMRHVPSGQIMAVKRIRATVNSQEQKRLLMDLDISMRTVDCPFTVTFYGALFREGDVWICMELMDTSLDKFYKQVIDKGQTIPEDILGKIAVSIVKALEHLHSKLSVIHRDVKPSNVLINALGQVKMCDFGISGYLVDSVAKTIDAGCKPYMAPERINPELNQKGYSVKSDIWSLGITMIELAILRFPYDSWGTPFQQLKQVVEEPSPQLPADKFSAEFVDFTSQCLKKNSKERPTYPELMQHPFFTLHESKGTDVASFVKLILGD
The experiment in a line: Selectivity interaction (Kinase panel (DSF assay)) EUB0001558a MAP2K6.

Experiment [5] has as its target Cyclin-dependent kinase 2 (Homo sapiens, UniProt P24941). The experiment in a line: Selectivity interaction (KinomeScan (DiscoverX)) EUB0000045b CDK2.
Experiment [6] has as its target Calcium/calmodulin-dependent protein kinase type 1D (Homo sapiens) (UniProt Q8IU85). The experiment in a line: Selectivity interaction (Kinase panel (Z-LYTE Assay)) EUB0001632a CAMK1D. To be noted: at 10 µM.
Experiment [7] has as its target T4, Interleukin-1 receptor-associated kinase 3 (Homo sapiens) (UniProt Q9Y616).
T4 sequence (whole entry): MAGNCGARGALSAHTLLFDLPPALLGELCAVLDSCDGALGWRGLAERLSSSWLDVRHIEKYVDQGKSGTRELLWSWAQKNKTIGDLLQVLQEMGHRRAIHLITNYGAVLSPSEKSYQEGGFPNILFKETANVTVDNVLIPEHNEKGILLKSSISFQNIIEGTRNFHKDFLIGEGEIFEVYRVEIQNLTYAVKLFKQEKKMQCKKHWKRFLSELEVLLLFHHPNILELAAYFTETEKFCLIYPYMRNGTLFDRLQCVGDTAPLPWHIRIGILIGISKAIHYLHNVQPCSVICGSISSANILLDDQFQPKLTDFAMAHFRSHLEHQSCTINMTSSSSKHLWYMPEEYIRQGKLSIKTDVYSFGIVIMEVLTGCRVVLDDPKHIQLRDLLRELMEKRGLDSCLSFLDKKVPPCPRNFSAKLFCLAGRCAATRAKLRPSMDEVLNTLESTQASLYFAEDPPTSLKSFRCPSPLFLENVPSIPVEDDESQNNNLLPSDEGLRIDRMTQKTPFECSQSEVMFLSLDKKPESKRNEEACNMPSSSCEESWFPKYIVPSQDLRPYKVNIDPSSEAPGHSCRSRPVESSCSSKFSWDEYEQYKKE
The experiment in a line: Selectivity interaction (ActivX KiNativ screen (kinase selectivity in THP-1 cell lysates)) EUB0000639a IRAK3. In kind it is subcellular. To be noted: lysate, at 0.04 µM.

For experiment [8], the target named is Platelet-derived growth factor receptor beta (Homo sapiens, UniProt P09619). The experiment in a line: Selectivity interaction (Kinase panel (Invitrogen)) EUB0000639a PDGFRB. To be noted: at 200 nM.
Experiment [9] can be described thus: Selectivity interaction (Rat whole blood B cell activation assay) EUB0000877a PIK3CD. The class given is tissue-based.
For experiment [10], the target named is Dual specificity mitogen-activated protein kinase kinase 1 (Homo sapiens, UniProt Q02750). The experiment in a line: Selectivity interaction (Kinase panel (KiNativ target engagement assay in Jurkat cells)) EUB0001635a MAP2K1. In kind it is cell-based. The settings on record: Selectivity number of off-targets 0.0, Selectivity number of targets 233.0, Source Knowledge https://www.sciencedirect.com/science/article/pii/S2451945619300674?via%3Dihub, at 1 µM.
Dual specificity mitogen-activated protein kinase kinase 1, sequence (Q02750 whole entry): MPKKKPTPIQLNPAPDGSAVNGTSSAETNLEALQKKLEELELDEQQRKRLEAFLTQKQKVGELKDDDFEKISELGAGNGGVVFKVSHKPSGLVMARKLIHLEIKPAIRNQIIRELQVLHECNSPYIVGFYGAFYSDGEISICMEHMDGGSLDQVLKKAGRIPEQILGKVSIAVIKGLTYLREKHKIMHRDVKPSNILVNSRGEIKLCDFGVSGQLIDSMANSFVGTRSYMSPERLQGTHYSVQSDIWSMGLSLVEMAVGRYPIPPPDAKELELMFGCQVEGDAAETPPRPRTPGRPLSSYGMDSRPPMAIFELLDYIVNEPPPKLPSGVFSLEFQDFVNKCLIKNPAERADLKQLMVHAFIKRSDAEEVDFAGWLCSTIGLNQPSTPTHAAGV

Cyclin-dependent kinase 5/CDK5 activator 1 (Homo sapiens), sequence (Q00535 whole entry): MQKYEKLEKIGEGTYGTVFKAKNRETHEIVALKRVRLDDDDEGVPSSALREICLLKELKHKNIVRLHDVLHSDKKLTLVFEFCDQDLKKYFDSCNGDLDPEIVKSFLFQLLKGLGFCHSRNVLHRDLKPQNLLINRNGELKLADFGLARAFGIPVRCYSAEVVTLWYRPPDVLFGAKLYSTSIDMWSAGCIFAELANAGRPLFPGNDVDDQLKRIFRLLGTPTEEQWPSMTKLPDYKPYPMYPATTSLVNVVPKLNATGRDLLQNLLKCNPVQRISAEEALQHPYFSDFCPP
Cyclin-dependent kinase 5/CDK5 activator 1 (Homo sapiens), sequence (Q15078 99-307 partner limits assumed): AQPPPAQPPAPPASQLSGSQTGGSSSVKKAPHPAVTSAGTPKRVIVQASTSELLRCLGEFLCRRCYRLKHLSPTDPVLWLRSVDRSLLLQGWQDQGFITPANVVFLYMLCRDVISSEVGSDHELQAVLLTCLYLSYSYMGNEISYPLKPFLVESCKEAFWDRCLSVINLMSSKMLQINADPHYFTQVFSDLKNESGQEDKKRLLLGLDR
Platelet-derived growth factor receptor beta, sequence (P09619 whole entry): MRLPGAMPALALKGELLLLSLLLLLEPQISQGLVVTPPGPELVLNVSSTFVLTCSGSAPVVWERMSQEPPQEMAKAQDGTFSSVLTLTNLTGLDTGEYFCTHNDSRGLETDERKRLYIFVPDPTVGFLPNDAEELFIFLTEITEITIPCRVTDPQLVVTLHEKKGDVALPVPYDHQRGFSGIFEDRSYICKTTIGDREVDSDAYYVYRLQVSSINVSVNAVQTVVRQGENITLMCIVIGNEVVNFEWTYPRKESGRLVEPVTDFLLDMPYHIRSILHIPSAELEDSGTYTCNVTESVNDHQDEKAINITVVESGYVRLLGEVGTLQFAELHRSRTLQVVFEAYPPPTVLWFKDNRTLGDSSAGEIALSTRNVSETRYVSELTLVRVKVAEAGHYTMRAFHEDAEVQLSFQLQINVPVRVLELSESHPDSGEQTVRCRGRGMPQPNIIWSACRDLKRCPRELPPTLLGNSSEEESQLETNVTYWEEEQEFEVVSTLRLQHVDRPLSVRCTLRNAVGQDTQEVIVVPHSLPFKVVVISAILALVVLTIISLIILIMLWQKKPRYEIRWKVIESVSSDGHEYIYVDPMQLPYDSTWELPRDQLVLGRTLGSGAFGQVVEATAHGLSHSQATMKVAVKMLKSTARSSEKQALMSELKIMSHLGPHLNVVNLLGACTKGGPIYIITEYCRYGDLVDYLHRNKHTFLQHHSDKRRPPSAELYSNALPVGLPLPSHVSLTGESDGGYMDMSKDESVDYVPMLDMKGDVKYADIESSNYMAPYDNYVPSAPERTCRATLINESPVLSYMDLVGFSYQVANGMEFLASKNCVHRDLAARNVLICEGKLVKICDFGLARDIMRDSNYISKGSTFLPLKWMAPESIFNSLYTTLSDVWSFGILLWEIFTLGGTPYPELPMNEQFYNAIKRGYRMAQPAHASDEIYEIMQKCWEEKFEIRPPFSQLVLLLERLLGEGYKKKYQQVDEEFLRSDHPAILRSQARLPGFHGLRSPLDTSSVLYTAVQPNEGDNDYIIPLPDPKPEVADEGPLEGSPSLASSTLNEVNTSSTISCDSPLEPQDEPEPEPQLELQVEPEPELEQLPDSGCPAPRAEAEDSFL
Calcium/calmodulin-dependent protein kinase type 1D (Homo sapiens), sequence (Q8IU85 whole entry, looked up): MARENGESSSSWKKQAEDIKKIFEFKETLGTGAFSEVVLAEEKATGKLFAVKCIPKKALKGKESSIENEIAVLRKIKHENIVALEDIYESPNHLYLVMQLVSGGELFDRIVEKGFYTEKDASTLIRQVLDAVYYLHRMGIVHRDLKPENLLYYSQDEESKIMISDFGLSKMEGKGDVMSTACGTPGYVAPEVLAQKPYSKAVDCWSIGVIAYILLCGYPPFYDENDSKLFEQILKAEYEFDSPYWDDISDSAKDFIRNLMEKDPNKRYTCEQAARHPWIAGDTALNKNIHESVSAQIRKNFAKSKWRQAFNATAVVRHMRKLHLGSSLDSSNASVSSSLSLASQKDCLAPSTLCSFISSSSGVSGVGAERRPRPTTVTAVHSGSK

Consider `Cc1ccc(-c2ccc3c(ccc4sc5c(c43)NC[C@@H](C)NC5=O)n2)cn1`, for which the % of inhibition in [1] is -15%. `C=CC(=O)Nc1cccc(C(=O)Nc2ccc(Nc3cc(-c4[nH]c(SC)nc4C)ccn3)cc2)c1` registered a % of control in experiment [2] of 74%. Compound `Cc1cc([C@@H](C)Nc2ccccc2C(=O)O)c2nc(N3CCOCC3)cc(=O)n2c1` [AZD-6482] displayed a % of control in [3] of 98%. Compound `CC(C)(O)[C@H](F)CN1Cc2cc(NC(=O)c3cnn4cccnc34)c(N3CCOCC3)cc2C1=O` came in with a dTM in experiment [4] of 0.3 K.

On to `C=CC(=O)Nc1cc(-n2c(=O)ccc3cnc4ccc(-c5ccc(NS(C)(=O)=O)cc5)cc4c32)ccc1C`, for which the figures for the % of control in experiment [5] (at 1 µM) and in experiment [5] (at 10 µM) were 95% and 100%, respectively. For the compound `Cn1cc(-n2cnc3c(NCc4nc5cc(Cl)c(Cl)cc5[nH]4)nc(N4CCOCC4)nc32)cn1`, the % of control in experiment [6] was 2.81%. Turning to `CC[C@@H]1[C@H](F)C(=O)N[C@@H]1COc1nccc2cc(C(N)=O)c(OC)cc12` [ZIMLOVISERTIB], the % of inhibition in experiment [7] was -1.7%; in experiment [8] it was -2.22%. Consider `CCC(=O)N1CC[C@H](Nc2ncnc3c2CN(c2cnc(OC)c(C(F)(F)F)c2)CC3)C1` [LENIOLISIB], for which the IC50 in [9] was found to be 0.099 µM. With `C=CC(=O)Nc1ccc(C(=O)Nc2[nH]nc3c2CN(C(=O)N[C@H](CN(C)C)c2ccccc2)C3(C)C)cc1`, in experiment [10], the % of engagement was 4.8%.
